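These data come from cells grown in 96-well plates and exposed to compound for 48 hours at five concentrations. GI50 = concentration required for 50% inhibition of growth. TGI: concentration producing complete growth inhibition.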
Assays:
Assay in all cases: NCI-60 cell line screen, 48 h
SN12C renal = system: SN12C renal
CAKI-1 renal = system: CAKI-1 renal
UACC-62 melanoma = system: UACC-62 melanoma
SNB-19 CNS = system: SNB-19 CNS
A498 renal = system: A498 renal
SK-OV-3 ovarian = system: SK-OV-3 ovarian
HOP-92 NSCLC = system: HOP-92 NSCLC
NCI-H460 lung = system: NCI-H460 lung
SF-295 CNS = system: SF-295 CNS
PC-3 prostate = system: PC-3 prostate

Compound: CCC[CH2][Sn]1([CH2]CCC)[O]CC(CN2CCCC2)[O]1 (stereo unspecified)
- GI50 (SN12C renal): 16.7 µM
- TGI (SN12C renal): 31 µM
- GI50 (CAKI-1 renal): 5.6 µM
- TGI (CAKI-1 renal): 24.5 µM
- GI50 (UACC-62 melanoma): 13.6 µM
- TGI (UACC-62 melanoma): 30.5 µM
- GI50 (SNB-19 CNS): 18.7 µM
- TGI (SNB-19 CNS): 44.3 µM
- GI50 (A498 renal): 28.5 µM
- TGI (A498 renal): 46.9 µM
- GI50 (SK-OV-3 ovarian): 37 µM
- TGI (SK-OV-3 ovarian): > 100 µM
- GI50 (HOP-92 NSCLC): 8.45 µM
- TGI (HOP-92 NSCLC): 23.8 µM
- GI50 (NCI-H460 lung): 34.6 µM
- TGI (NCI-H460 lung): > 100 µM
- GI50 (SF-295 CNS): 14.5 µM
- TGI (SF-295 CNS): 28.2 µM

Compound: COc1ccc(C(=O)C(C(=O)CCC(=O)Nc2cccc(Cl)c2)c2ccc(OC)cc2)cc1 (stereo unspecified)
- TGI (SN12C renal): > 100 µM
- TGI (CAKI-1 renal): > 100 µM
- TGI (UACC-62 melanoma): > 100 µM
- TGI (SNB-19 CNS): > 100 µM
- TGI (A498 renal): > 100 µM
- TGI (SK-OV-3 ovarian): > 100 µM
- TGI (HOP-92 NSCLC): > 100 µM
- TGI (NCI-H460 lung): > 100 µM
- TGI (SF-295 CNS): > 100 µM

Compound: COc1cc2c(cc1OC)C(CC(=O)NN=C(C)C)NCC2 (stereo unspecified)
- TGI (SN12C renal): > 100 µM
- TGI (CAKI-1 renal): > 100 µM
- TGI (UACC-62 melanoma): > 100 µM
- TGI (SNB-19 CNS): > 100 µM
- TGI (A498 renal): > 100 µM
- TGI (SK-OV-3 ovarian): > 100 µM
- TGI (HOP-92 NSCLC): > 100 µM
- TGI (NCI-H460 lung): > 100 µM
- TGI (SF-295 CNS): > 100 µM

Compound: N#CCN1C(=O)c2cccc3cc([N+](=O)[O-])cc(c23)C1=O
- TGI (SN12C renal): > 100 µM
- TGI (UACC-62 melanoma): 60.5 µM
- TGI (SNB-19 CNS): > 100 µM
- TGI (A498 renal): > 100 µM
- TGI (SK-OV-3 ovarian): > 100 µM
- TGI (HOP-92 NSCLC): > 100 µM
- TGI (NCI-H460 lung): > 100 µM
- TGI (SF-295 CNS): > 100 µM

Compound: CCOC(=O)C1=C(C)N(NC(=O)Nc2ccccc2)C(=O)C1=P(c1ccccc1)(c1ccccc1)c1ccccc1
- TGI (SN12C renal): > 100 µM
- TGI (CAKI-1 renal): > 100 µM
- TGI (UACC-62 melanoma): 89.9 µM
- TGI (SNB-19 CNS): > 100 µM
- TGI (A498 renal): > 100 µM
- TGI (SK-OV-3 ovarian): > 100 µM
- TGI (HOP-92 NSCLC): > 100 µM
- TGI (NCI-H460 lung): > 100 µM
- TGI (SF-295 CNS): > 100 µM

Compound: COc1cc2ncnc(Nc3ccc(C)c(O)c3)c2cc1OC
- GI50 (SN12C renal): 6.46 µM
- TGI (SN12C renal): > 25 µM
- GI50 (CAKI-1 renal): 1.99 µM
- TGI (CAKI-1 renal): > 17.5 µM
- GI50 (PC-3 prostate): > 19.8 µM
- TGI (PC-3 prostate): > 25 µM
- GI50 (UACC-62 melanoma): > 25 µM
- TGI (UACC-62 melanoma): > 25 µM
- GI50 (SNB-19 CNS): > 25 µM
- TGI (SNB-19 CNS): > 25 µM
- GI50 (A498 renal): 5.56 µM
- TGI (A498 renal): 18 µM
- GI50 (SK-OV-3 ovarian): 1.32 µM
- TGI (SK-OV-3 ovarian): > 19.9 µM
- GI50 (NCI-H460 lung): > 25 µM
- TGI (NCI-H460 lung): > 25 µM
- GI50 (SF-295 CNS): > 25 µM
- TGI (SF-295 CNS): > 25 µM

Compound: COC1(OC)C2(Cl)C(Cl)=C(Cl)C1(Cl)C1C=CC=CC12 (stereo unspecified)
- TGI (SN12C renal): > 100 µM
- TGI (CAKI-1 renal): > 100 µM
- TGI (UACC-62 melanoma): > 100 µM
- TGI (SNB-19 CNS): > 100 µM
- TGI (SK-OV-3 ovarian): > 100 µM
- TGI (HOP-92 NSCLC): > 100 µM
- TGI (NCI-H460 lung): > 100 µM
- TGI (SF-295 CNS): > 100 µM

Compound: Cc1cn(C2CC(O)C(CO)O2)c(=O)n2nnnc12 (stereo unspecified)
- TGI (UACC-62 melanoma): > 100 µM
- TGI (SNB-19 CNS): > 100 µM
- TGI (A498 renal): > 100 µM
- TGI (SK-OV-3 ovarian): > 100 µM
- TGI (HOP-92 NSCLC): > 100 µM
- TGI (NCI-H460 lung): > 100 µM
- TGI (SF-295 CNS): > 100 µM

Compound: Cc1nc(N)sc1C(=O)/C=C\c1ccc2c(c1)OCO2
- TGI (SN12C renal): > 100 µM
- TGI (CAKI-1 renal): > 100 µM
- TGI (UACC-62 melanoma): > 100 µM
- TGI (SNB-19 CNS): > 100 µM
- TGI (A498 renal): > 100 µM
- TGI (SK-OV-3 ovarian): > 100 µM
- TGI (HOP-92 NSCLC): > 100 µM
- TGI (NCI-H460 lung): > 100 µM
- TGI (SF-295 CNS): > 100 µM

Compound: CC1(C)C(=O)N(CCCCCCN2C(=O)C(C)(C)c3ccccc32)c2ccccc21
- TGI (SN12C renal): > 100 µM
- TGI (CAKI-1 renal): > 100 µM
- TGI (UACC-62 melanoma): 79.8 µM
- TGI (SNB-19 CNS): > 100 µM
- TGI (A498 renal): > 100 µM
- TGI (SK-OV-3 ovarian): > 100 µM
- TGI (HOP-92 NSCLC): > 100 µM
- TGI (NCI-H460 lung): > 100 µM
- TGI (SF-295 CNS): > 100 µM

Compound: O=C1C2C3C=C4c5ccccc5N(c5ccccc5)C4(C2C(=O)N1Cc1ccccc1)C1C(=O)N(Cc2ccccc2)C(=O)C31 (stereo unspecified)
- TGI (SN12C renal): > 100 µM
- TGI (SNB-19 CNS): > 100 µM
- TGI (A498 renal): > 100 µM
- TGI (HOP-92 NSCLC): > 100 µM
- TGI (NCI-H460 lung): > 100 µM
- TGI (SF-295 CNS): > 100 µM

Compound: COc1cc(C(C)O)c[n+](CCc2c[nH]c3ccccc23)c1 (stereo unspecified)
- TGI (SN12C renal): > 100 µM
- TGI (CAKI-1 renal): > 100 µM
- TGI (UACC-62 melanoma): > 100 µM
- TGI (SNB-19 CNS): > 100 µM
- TGI (A498 renal): > 100 µM
- TGI (NCI-H460 lung): > 100 µM
- TGI (SF-295 CNS): > 100 µM

Compound: NC(N)=N/N=C(\c1nc2ccc([N+](=O)[O-])cc2[nH]c1=O)C(O)c1ccc([N+](=O)[O-])cc1 (stereo unspecified)
- TGI (SN12C renal): > 100 µM
- TGI (CAKI-1 renal): > 100 µM
- TGI (UACC-62 melanoma): > 100 µM
- TGI (SNB-19 CNS): > 100 µM
- TGI (SK-OV-3 ovarian): > 100 µM
- TGI (HOP-92 NSCLC): > 100 µM
- TGI (NCI-H460 lung): > 100 µM
- TGI (SF-295 CNS): > 100 µM

Compound: CS/C(N)=N\NC(=O)CCC(=O)Nc1ccccc1C(F)(F)F
- TGI (SN12C renal): > 100 µM
- TGI (CAKI-1 renal): > 100 µM
- TGI (UACC-62 melanoma): > 100 µM
- TGI (SNB-19 CNS): > 100 µM
- TGI (A498 renal): > 100 µM
- TGI (SK-OV-3 ovarian): > 100 µM
- TGI (HOP-92 NSCLC): > 100 µM
- TGI (NCI-H460 lung): > 100 µM
- TGI (SF-295 CNS): > 100 µM

Compound: CC(C)(C)c1ccc2c(c1)S(=O)(=O)Nc1ccccc1NS(=O)(=O)c1cc(C(C)(C)C)ccc1OCCOCCOCCO2
- TGI (SN12C renal): > 100 µM
- TGI (CAKI-1 renal): > 100 µM
- TGI (UACC-62 melanoma): > 100 µM
- TGI (SNB-19 CNS): > 100 µM
- TGI (A498 renal): > 100 µM
- TGI (SK-OV-3 ovarian): > 100 µM
- TGI (HOP-92 NSCLC): > 100 µM
- TGI (NCI-H460 lung): > 100 µM
- TGI (SF-295 CNS): > 100 µM

Compound: Clc1ccc(C2=Nn3c(COc4ccccc4Cl)nnc3SC2)c(Cl)c1
- GI50 (CAKI-1 renal): 25.9 µM
- TGI (CAKI-1 renal): 76.7 µM
- GI50 (PC-3 prostate): 37.2 µM
- TGI (PC-3 prostate): > 100 µM
- GI50 (UACC-62 melanoma): 15.1 µM
- TGI (UACC-62 melanoma): 35.5 µM
- GI50 (SNB-19 CNS): 30.4 µM
- TGI (SNB-19 CNS): > 100 µM
- GI50 (SK-OV-3 ovarian): 28.1 µM
- TGI (SK-OV-3 ovarian): 86.3 µM
- GI50 (HOP-92 NSCLC): 39 µM
- TGI (HOP-92 NSCLC): > 100 µM
- GI50 (NCI-H460 lung): 24.2 µM
- TGI (NCI-H460 lung): > 100 µM
- GI50 (SF-295 CNS): 10.3 µM
- TGI (SF-295 CNS): 87 µM

Compound: Nn1c(=O)n(Cc2ccccc2)n(-c2ccccc2)c1=O
- TGI (SN12C renal): > 100 µM
- TGI (CAKI-1 renal): > 100 µM
- TGI (UACC-62 melanoma): > 100 µM
- TGI (SNB-19 CNS): > 100 µM
- TGI (A498 renal): > 100 µM
- TGI (SK-OV-3 ovarian): > 100 µM
- TGI (HOP-92 NSCLC): > 100 µM
- TGI (NCI-H460 lung): > 100 µM
- TGI (SF-295 CNS): > 100 µM

Compound: Cc1cccc(NC(=O)/C(=N\NC(C)(C)C)C2NC(=S)NC2=O)c1C (stereo unspecified)
- TGI (CAKI-1 renal): > 100 µM
- TGI (UACC-62 melanoma): > 100 µM
- TGI (SNB-19 CNS): > 100 µM
- TGI (A498 renal): > 100 µM
- TGI (SK-OV-3 ovarian): > 100 µM
- TGI (NCI-H460 lung): > 100 µM
- TGI (SF-295 CNS): > 100 µM

Compound: COc1ccccc1/C=C1\SC(=S)N(/C=C2\C(=O)Oc3ccccc3C2=O)C1=O
- TGI (CAKI-1 renal): 3.23 µM
- TGI (PC-3 prostate): > 100 µM
- TGI (UACC-62 melanoma): 64 µM
- TGI (SNB-19 CNS): > 100 µM
- TGI (SK-OV-3 ovarian): 76 µM
- TGI (HOP-92 NSCLC): 64.8 µM

Compound: Clc1nc(Cl)c(Cl)c(-c2ccccc2)n1
- TGI (SN12C renal): 53.9 µM
- TGI (PC-3 prostate): 39.3 µM
- TGI (SNB-19 CNS): 33.3 µM
- TGI (SK-OV-3 ovarian): 25.8 µM
- TGI (NCI-H460 lung): > 100 µM
- TGI (SF-295 CNS): 17.1 µM

Compound: COc1ccc(/C=C/c2ccnc3ccccc23)c(OC)c1
- TGI (SN12C renal): > 10 µM
- TGI (CAKI-1 renal): > 10 µM
- TGI (PC-3 prostate): > 10 µM
- TGI (UACC-62 melanoma): > 10 µM
- TGI (SNB-19 CNS): > 10 µM
- TGI (A498 renal): > 10 µM
- TGI (SK-OV-3 ovarian): > 10 µM
- TGI (NCI-H460 lung): > 10 µM
- TGI (SF-295 CNS): > 10 µM
